Measured values: publication PMC11542720, “Modelling of chromatographic and electrophoretic behaviour of imidazoline and alpha adrenergic receptors ligands under different acid-base conditions” (ADMET & DMPK, 2024)
Where a name gives a salt, the structure may show the parent alone. Read-outs that look alike come from different tables or passages of the source.

Tests used:
[1] = cited from earlier work
[2] = RP-HPLC retention on XTerra RP18, methanol/buffer; extrapolated retention factor log kw and slope S; assay type: physicochemical; details: for log kw: intercept, extrapolated to 100 % buffer, methanol/buffer, 25 °C; for S (slope): slope of log k vs methanol volume fraction
Protocol: All measurements were performed at 25°C with a constant flow rate of 0.8 mL min^-1 and UV detection in the range of 200-280 nm. The injection volume was 20 μL. […] The retention factor k was calculated for each mobile phase composition according to Equation (1):
where tr is the retention time of the tested compound and t0 is the dead volume measured with KNO3 as a non-retentive marker. The values corresponding to 100 % of the buffered eluent (log kw) were determined by extrapolation according to Equation (2):
where log kw is the intercept, S is the slope of the regression line, and φ is the volume fraction of the organic modifier in the mobile phase.
The retention behaviour in HPLC system was monitored by calculating extrapolated retention factors log kw corresponding to pure buffer as mobile phase.

[3] = Capillary electrophoresis, effective electrophoretic mobility (acetone as EOF marker); assay type: physicochemical; details: for µeff4.4 / µeff7.4 / µeff9.1: I = 25 mmol/L, 11 kV, 25 °C, three replicates; for μeff9.1 (effective electrophoretic mobility) / µeff9.1: pH 9.1
Protocol: All experiments were performed using the SpectraPhoresis 500-capillary electrophoresis system (Spectra Physics Analytical, USA) with UV detector. Data were recorded and analyzed using ChromQuest software version 4.0 (Thermo Finnigan, USA).
The separations were performed with an uncoated fused capillary (total length 31.5 cm, 50 μm id, effective length 24 cm, Polymicro Technologies, USA) applying a voltage of 11 kV and at 25 °C. The samples were injected hydrodynamically and detection was performed in the 200-280 nm range. The new capillary was rinsed stepwise with 0.1 M NaOH (15 min), water (10 min) and a running buffer (10 min). Finally, a 10 min high voltage was applied through the background electrolyte-filled capillary to equalize the inner surface, stabilize the electroosmotic flow and ensure good reproducibility of injections from run to run. […] Between runs, the capillary was rinsed with the background electrolyte for 1 minute.
where Lt is the total length of the capillary (cm), Leff is the effective length of the capillary (cm), U is the applied voltage (V), tm is the migration time of the analyte (s) and teof is the migration time of the electroneutral EOF marker acetone (s). The calculated μeff values (μeff4.4, μeff7.4 and μeff9.1) were used as dependent variables in QSMR analysis.

[4] = HPLC, ref 7 (Supplement reference list)
[5] = pH spectrophotometric, ref 13 (Supplement reference list)
[6] = pH-spectrophotometric, ref 14 (Supplement reference list)
[7] = pH titration, ref 4 (Supplement reference list)

| Compound | log kw ([2]; pH 4.4) | S (slope) ([2]; pH 4.4) | log kw ([2]; pH 7.4) | S (slope) ([2]; pH 7.4) | log kw ([2]; pH 9.1) | S (slope) ([2]; pH 9.1) | µeff4.4 ([3]; pH 4.4) | µeff7.4 ([3]; pH 7.4) | μeff9.1 (effective electrophoretic mobility) [3] | µeff9.1 [3] | also measured |
| --- | --- | --- | --- | --- | --- | --- | --- | --- | --- | --- | --- |
| Brc1c(NC2=NCCN2)ccc2nccnc12 [Brimonidine, brimonidine hydrochloride] | 0.99 ± 0.03 | -4.78 ± 0.21 | 1.08 ± 0.03 | -3.20 ± 0.12 | 1.26 ± 0.07 | -3.23 ± 0.19 | 23.357 ± 0.043 10^-5 cm^2 V^-1 s^-1 | 13.247 ± 0.200 10^-5 cm^2 V^-1 s^-1 | zero | 0.000 ± 0.000 10^-5 cm^2 V^-1 s^-1 | pKa experimental ([1]; potentiometric, ref 2 (Supplement reference list)): 7.50 |
| CN1CCN(C2=Nc3cc(Cl)ccc3Nc3ccccc32)CC1 [Clozapine, clozapine] | 2.94 ± 0.03 | -4.69 ± 0.06 | 3.85 ± 0.05 | -4.88 ± 0.08 | 3.95 ± 0.08 | -5.04 ± 0.15 | 22.697 ± 0.017 10^-5 cm^2 V^-1 s^-1 | 9.204 ± 0.061 10^-5 cm^2 V^-1 s^-1 | zero | 0.000 ± 0.000 10^-5 cm^2 V^-1 s^-1 | pKa experimental ([1]; HPLC, ref 5 (Supplement reference list)): 7.719 ± 0.015 |
| COc1cc2nc(N3CCN(C(=O)C4COc5ccccc5O4)CC3)nc(N)c2cc1OC (centres unmarked) [Doxazosin, doxazosin mesilat] | 3.42 ± 0.07 | -5.56 ± 0.14 | 3.67 ± 0.11 | -5.05 ± 0.19 | 3.60 ± 0.11 | -4.95 ± 0.20 | 15.795 ± 0.013 10^-5 cm^2 V^-1 s^-1 | 3.137 ± 0.075 10^-5 cm^2 V^-1 s^-1 | zero | 0.000 ± 0.000 10^-5 cm^2 V^-1 s^-1 | pKa experimental ([1]; voltammetric, ref 6 (Supplement reference list)): 6.89 ± 0.57 |
| CCC1(C2=NCCN2)Cc2ccccc2O1 (centres unmarked) [Efaroxan, efaroxan hydrochloride] | 1.31 ± 0.02 | -3.20 ± 0.04 | 1.33± 0.03 | -3.10 ± 0.14 | 1.85 ± 0.01 | -3.38 ± 0.03 | 24.099 ± 0.035 10^-5 cm^2 V^-1 s^-1 | 22.704 ± 0.075 10^-5 cm^2 V^-1 s^-1 | – | 16.361 ± 0.178 10^-5 cm^2 V^-1 s^-1 | pKa experimental [1, 4]: 10.02 |
| Cc1nccc2c1[nH]c1ccccc12 [Harman, harmane] | 1.72 ± 0.06 | -3.74 ± 0.18 | 2.76 ± 0.05 | -3.70 ± 0.09 | 2.78 ± 0.06 | -3.75 ± 0.11 | 28.192 ± 0.016 10^-5 cm^2 V^-1 s^-1 | 11.752 ± 0.034 10^-5 cm^2 V^-1 s^-1 | – | 0.000 ± 0.000 10^-5 cm^2 V^-1 s^-1 | pKa experimental [1, 4]: 7.21; μeff4.4 (effective electrophoretic mobility) ([3]; pH 4.4): 28.19 10^-5 cm^2 / V s |
| COc1ccc2c(c1)[nH]c1c(C)nccc12 [Harmine, harmine hydrochloride] | 2.15 ± 0.04 | -4.28 ± 0.11 | 2.88 ± 0.05 | -3.85 ± 0.09 | 2.95 ± 0.07 | -3.97 ± 0.12 | 26.410 ± 0.068 10^-5 cm^2 V^-1 s^-1 | 13.636 ± 0.051 10^-5 cm^2 V^-1 s^-1 | – | 1.305 ± 0.124 10^-5 cm^2 V^-1 s^-1 | pKa experimental ([1]; spectrophotometric, ref 9 (Supplement reference list)): 7.45 (spectrophotometric) [9] |
| c1ccc2c(c1)OCC(C1=NCCN1)O2 (centres unmarked) [Idazoxan, idazoxan hydrochloride] | 0.82 ± 0.01 | -2.66 ± 0.03 | 0.85 ± 0.02 | -1.58 ± 0.04 | 1.53 ± 0.01 | -2.80 ± 0.01 | 26.969 ± 0.032 10^-5 cm^2 V^-1 s^-1 | 23.293 ± 0.020 10^-5 cm^2 V^-1 s^-1 | – | 6.627 ± 0.102 10^-5 cm^2 V^-1 s^-1 | pKa experimental [1, 4]: 9.04 |
| CNCCCC12CCC(c3ccccc31)c1ccccc12 [Maprotiline, maprotiline hydrochloride] | 2.90 ± 0.08 | -4.31 ± 0.14 | 2.58 ± 0.12 | -3.18 ± 0.20 | 3.09 ± 0.08 | -4.20 ± 0.14 | 20.559 ± 0.034 10^-5 cm^2 V^-1 s^-1 | 18.696 ± 0.048 10^-5 cm^2 V^-1 s^-1 | – | 19.402 ± 0.148 10^-5 cm^2 V^-1 s^-1 | pKa experimental ([1]; potentiometric, ref 11 (Supplement reference list)): 10.45 ± 0.02 |
| CN1CCN2c3ccccc3Cc3ccccc3C2C1 (centres unmarked) [Mianserin, mianserin hydrochloride] | 2.48 ± 0.03 | -4.24 ± 0.07 | 3.91 ± 0.05 | -4.82 ± 0.08 | 3.92 ± 0.06 | -4.83 ± 0.11 | 22.471 ± 0.004 10^-5 cm^2 V^-1 s^-1 | 12.234 ± 0.109 10^-5 cm^2 V^-1 s^-1 | – | 0.000 ± 0.000 10^-5 cm^2 V^-1 s^-1 | pKa experimental ([1]; potentiometric, ref 12 (Supplement reference list)): 7.40 |
| COc1nc(C)nc(Cl)c1N=C1NCCN1 [Moxonidine, moxonidine hydrochloride] | 0.57 ± 0.03 | -3.21± 0.17 | 0.63 ± 0.03 | -2.36 ± 0.10 | 0.75 ± 0.04 | -2.31 ± 0.10 | 22.669 ± 0.104 10^-5 cm^2 V^-1 s^-1 | 10.907 ± 0.078 10^-5 cm^2 V^-1 s^-1 | zero | 0.000 ± 0.000 10^-5 cm^2 V^-1 s^-1 | pKa experimental [1, 4]: 7.84 |
| c1ccc2c(CC3=NCCN3)cccc2c1 [Naphazoline, naphazoline hydrochloride] | 1.52 ± 0.01 | -3.48 ± 0.04 | 1.52 ± 0.01 | -3.64 ± 0.05 | 1.76 ± 0.01 | -3.50 ± 0.03 | 25.941 ± 0.038 10^-5 cm^2 V^-1 s^-1 | 24.180 ± 0.135 10^-5 cm^2 V^-1 s^-1 | – | 24.643 ± 0.049 10^-5 cm^2 V^-1 s^-1 | pKa experimental [1, 5]: 10.81 |
| Cc1cc(C(C)(C)C)c(O)c(C)c1CC1=NCCN1 [Oxymetazoline, oxymetazoline hydrochloride] | 2.33 ± 0.02 | -3.89 ± 0.04 | 2.33 ± 0.04 | -3.61 ± 0.10 | 2.60 ± 0.07 | -4.14 ± 0.16 | 20.276 ± 0.040 10^-5 cm^2 V^-1 s^-1 | 19.061 ± 0.049 10^-5 cm^2 V^-1 s^-1 | – | 19.556 ± 0.076 10^-5 cm^2 V^-1 s^-1 | pKa experimental [1, 5]: 10.62 |
| CNC[C@H](O)c1cccc(O)c1 [Phenilephrine, Phenilephrine hydrochloride] | 0.09 ± 0.02 | -2.53 ± 0.14 | 0.04 ± 0.01 | -2.62 ± 0.06 | 0.39 ± 0.02 | -2.00 ± 0.06 | 25.780 ± 0.006 10^-5 cm^2 V^-1 s^-1 | 21.650 ±0.195 10^-5 cm^2 V^-1 s^-1 | – | 8.661 ± 0.036 10^-5 cm^2 V^-1 s^-1 | pKa experimental (first of two printed values) [1, 6]: 9.17; pKa experimental (second of two printed values) [1, 6]: 9.17 and 10.45 (pH-spectrophotometric) [14 ]; log kw ([2]; pH 4.4, listed as phenilephrine): 0.09 |
| c1ccc2c(c1)CCCC2C1=NCCN1 (centres unmarked) [Tetrahydrozoline, tetrahydrozoline hydrochloride] | 1.06 ± 0.02 | -2.94 ± 0.05 | 1.08 ± 0.01 | -3.24 ± 0.06 | 1.32 ± 0.03 | -2.99 ± 0.07 | 25.680 ± 0.049 10^-5 cm^2 V^-1 s^-1 | 24.299 ± 0.057 10^-5 cm^2 V^-1 s^-1 | 25.05 10^-5 cm^2 / V s | 25.047 ± 0.066 10^-5 cm^2 V^-1 s^-1 | pKa experimental [1, 7]: 10.51 ± 0.05 |
| c1cc2c(c(NC3=NCCN3)c1)CCCC2 [Tramazoline, Tramazoline hydrochloride] | 1.55 ± 0.03 | -3.43 ± 0.07 | 1.51 ± 0.01 | -3.51 ± 0.06 | 1.74 ± 0.01 | -3.37 ± 0.03 | 24.393 ± 0.067 10^-5 cm^2 V^-1 s^-1 | 22.988 ± 0.060 10^-5 cm^2 V^-1 s^-1 | – | 23.713 ± 0.031 10^-5 cm^2 V^-1 s^-1 | pKa experimental [1, 7]: 10.66 ± 0.05 |
| Nc1nc(N)c2nc(-c3ccccc3)c(N)nc2n1 [Triamterene, triamterene] | 1.75 ± 0.05 | -3.96 ± 0.14 | 1.92 ± 0.05 | -3.76 ± 0.12 | 1.93 ± 0.04 | -3.75 ± 0.11 | 22.146 ± 0.019 10^-5 cm^2 V^-1 s^-1 | 1.140 ± 0.053 10^-5 cm^2 V^-1 s^-1 | zero | 0.000 ± 0.000 10^-5 cm^2 V^-1 s^-1 | pKa experimental ([1]; spectrophotometric, ref 15 (Supplement reference list)): 7.16; μeff7.4 (effective electrophoretic mobility, text) ([3]; pH 7.4): 1.140±0.053 10^-5 cm^2 / V s |
